According to patent publication US20250025466A1, “New oral pharmaceutical composition and dose regimen for the therapy of progressive fibrosing interstitial lung diseases” (Boehringer Ingelheim International GmbH, priority 2021, published 2025):
Marks after values point to notes of the source that are not given here.

Key:
patients with IPF [1] = conditions: IPF with mild or moderate impairment of FVC (≥50% predicted); cited from earlier work
patients with IPF [2] = conditions: in vivo; cited from earlier work
[3] = tested on: bleomycin-induced fibrosis; conditions: administered from the beginning of bleomycin challenge; cited from earlier work
skin fibrosis = conditions: induced by bleomycin or topoisomerase I and chronic graft-versus-host disease; cited from earlier work
[4] = tested on: renal interstitial fibrosis; conditions: mouse, in vivo; cited from earlier work
[5] = tested on: mouse primary tubular epithelial cells; conditions: cited from earlier work
[6] = tested on: bile duct ligation-induced hepatic fibrosis; conditions: rat, in vivo; cited from earlier work
hepatic stellate cells = conditions: cited from earlier work
[7] = tested on: trinitrobenzene sulfonic acid-induced colitis; conditions: rat, in vivo; cited from earlier work
cecal abrasion model = conditions: mouse, in vivo; cited from earlier work
sponge implant model = conditions: subcutaneous or intraperitoneal implant; cited from earlier work
[8] = tested on: human fetal lung fibroblasts (HFL-1); conditions: cited from earlier work
[9] = tested on: A549 human alveolar epithelial cell line; conditions: TGF-β1-stimulated; cited from earlier work
IPF patients [10] = test: Phase II clinical trial in IPF patients: disposition / premature discontinuation; format: in vivo, human; conditions: 18 mg b.i.d.
Description: The participants were divided into 2 groups by chance (the “active agent group” and the “placebo group”). […] One 12 mg placebo tablet and one 6 mg placebo tablet (both containing no active ingredient, see Table 1) was administered orally to the patients of the second group twice daily (b.i.d.).
The “active agent group” and the “placebo group” were further distributed to two different groups regarding background medication: the “AF-group” (“antifibrotic background medication group”) and the “Non-AF-group” (“no antifibrotic background medication group”). […] The combination of both nintedanib and pirfenidone as background medication was not allowed in the “AF-group”.
The trial was a randomised, double-blind, placebo-controlled parallel group study.

IPF patients [11] = conditions: male, human, in vivo, 13 weeks
PDE4 B subtype = PDE4 B subtype (Homo sapiens, UniProt Q07343); conditions: disclosed in WO 2013/026797; cited from earlier work
human lung fibroblasts = conditions: combination with nintedanib; WO2019/081235; cited from earlier work
IPF patients [12] = test: Phase II clinical trial in IPF patients: Treatment Emergent Adverse Events
[13] = tested on: dextran sulfate sodium-induced colitis ulcerosa; conditions: mouse, in vivo; cited from earlier work
bleomycin mice [14] = conditions: mouse, in vivo; cited from earlier work
[15] = tested on: bleomycin-induced fibrosis; conditions: cited from earlier work
bleomycin mice [16] = conditions: mouse, in vivo; cited from earlier work; remark: listed apart in the source
[17] = tested on: type II alveolar epithelial cells; conditions: cited from earlier work
[18] = tested on: chronic graft-versus-host disease; conditions: cited from earlier work
[19] = tested on: diethylnitrosamine-induced liver fibrosis; conditions: rat, in vivo; cited from earlier work
[20] = tested on: normal human lung fibroblasts (NHLFs); conditions: in the presence of indacaterol; cited from earlier work
[21] = tested on: human lung fibroblast model (WI-38); conditions: in the presence of forskolin; cited from earlier work
[22] = tested on: normal human lung fibroblasts (NHLFs); conditions: in the presence of PGE2; cited from earlier work
[23] = tested on: normal human lung fibroblasts (NHLFs); conditions: cited from earlier work
tuberculosis model = conditions: rabbit, in vivo; cited from earlier work
[24] = tested on: human fetal lung fibroblast strain (GM06114); conditions: in the presence of PGE2; cited from earlier work
[25] = tested on: normal human lung fibroblasts (NHLFs); conditions: stimulated by bleomycin or 8-epi-PGF2α; cited from earlier work
[26] = AF-group nintedanib background, 18 mg b.i.d.
[27] = AF-group pirfenidone background, 18 mg b.i.d.
[28] = Total (Non-AF + AF), 18 mg b.i.d.

Chain of PDE4 B subtype (Q07343 whole entry): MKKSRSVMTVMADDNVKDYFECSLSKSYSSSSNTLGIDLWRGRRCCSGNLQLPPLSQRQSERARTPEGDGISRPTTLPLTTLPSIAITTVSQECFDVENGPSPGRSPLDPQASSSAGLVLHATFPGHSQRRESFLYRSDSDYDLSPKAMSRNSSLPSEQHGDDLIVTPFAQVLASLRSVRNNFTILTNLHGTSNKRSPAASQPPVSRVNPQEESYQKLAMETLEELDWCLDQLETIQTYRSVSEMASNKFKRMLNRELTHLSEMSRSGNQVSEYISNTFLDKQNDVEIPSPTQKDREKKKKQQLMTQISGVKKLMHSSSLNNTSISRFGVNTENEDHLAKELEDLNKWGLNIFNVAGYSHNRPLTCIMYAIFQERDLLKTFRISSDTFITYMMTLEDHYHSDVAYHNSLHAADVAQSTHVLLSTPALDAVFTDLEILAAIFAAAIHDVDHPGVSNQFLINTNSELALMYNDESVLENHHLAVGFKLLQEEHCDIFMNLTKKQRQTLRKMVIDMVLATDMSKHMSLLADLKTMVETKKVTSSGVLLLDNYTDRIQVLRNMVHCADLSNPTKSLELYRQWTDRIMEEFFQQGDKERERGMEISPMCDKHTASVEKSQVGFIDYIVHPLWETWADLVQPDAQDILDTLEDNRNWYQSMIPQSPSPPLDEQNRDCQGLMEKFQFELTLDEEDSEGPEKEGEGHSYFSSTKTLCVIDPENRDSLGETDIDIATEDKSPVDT

For `COC(=O)c1ccc2c(c1)NC(=O)/C2=C(\Nc1ccc(N(C)C(=O)CN2CCN(C)CC2)cc1)c1ccccc1` [nintedanib], the “Effect on FVC decline” value (patients with IPF [1]) is listed as “can only reduce the decline in FVC” and the “Most prominent side effects” value (patients with IPF [2]) is listed as “gastrointestinal events, particularly diarrhea, nausea, vomiting, abdominal pain, decreased appetite and a decreased body weight”.

For `COc1ccc(C2CNC(=O)C2)cc1OC1CCCC1` (stereo not shown) [rolipram], the “Fibrotic score, hydroxyproline content, serum TNF-α” value [3] is given as “inhibit fibrotic score, hydroxyproline content, and serum tumor necrosis factor-α (TNF-α)”, the Skin fibrosis (skin fibrosis) is given as “inhibited” and the Renal interstitial fibrosis [4] is given as “inhibit renal interstitial fibrosis”. For the same molecule, the “TGF-β-induced damage, FN expression, deficiency of mitochondrial biogenesis” value [5] was “inhibited TGF-β-induced damage, FN expression, and deficiency of mitochondrial biogenesis”, the “Collagen deposition, α-SMA staining and mRNA expression” value [6] was “inhibited collagen deposition, α-smooth muscle actin (α-SMA) staining, and mRNA expression” and the “mRNA expression of α-SMA and Col1A2” value (hepatic stellate cells) was “inhibited mRNA expression of α-SMA and Col1A2”. For the same molecule, the “Collagen and TGF-β1 in colonic tissue” value [7] was “inhibited collagen and TGF-β1”, the Fibrotic reactions (cecal abrasion model) was “inhibited fibrotic reactions” and the “Intra-implant collagen and TGF-β1 deposition” value (sponge implant model) was “inhibiting intra-implant collagen and TGF-β1 deposition”. The “FN-induced chemotaxis and contraction of collagen gels” value [8] was “inhibited FN-induced chemotaxis and contraction of collagen gels” and the Epithelial-mesenchymal transition changes [9] was “inhibited epithelial-mesenchymal transition changes like FN and collagen mRNA expression, although not α-SMA mRNA”.

With `[O-][S@+]1CCc2nc(N3CCC(c4ncc(Cl)cn4)CC3)nc(NC3(CO)CCC3)c21` [Comp. of Form. III] the “Not completed observation period: Death, %” value (IPF patients [10]; AF-group) was 2.0%, the “Not completed planned treatment period (prematurely discontinued trial medication), %” value (IPF patients [10]; AF-group) was 20.4% and the “Not completed treatment period: Adverse Event, %” value (IPF patients [10]; AF-group) was 20.4%. For the same molecule, the “Not completed observation period: Death, %” value (IPF patients [10]; Non-AF-group) was 2.1%, the “Not completed planned treatment period (prematurely discontinued trial medication), %” value (IPF patients [10]; Non-AF-group) was 10.4% and the “Not completed treatment period: Adverse Event, %” value (IPF patients [10]; Non-AF-group) was 6.3%. The “Moderate cases of diarrhoea” value (IPF patients [11]) was 2.1%, the “Severe case of diarrhoea” value (IPF patients [11]) was 1.0% and the PDE4 subtype preference (PDE4 B subtype) was “inhibit preferentially the PDE4 B subtype”. For the same molecule, the “Effect on fibroblast proliferation” value (human lung fibroblasts) was “synergistic overadditive effect”, the “AE: Infections and infestations” value (IPF patients [12]; [26]) was 6 (23.1) n (%) and the “Serious AEs: Results in Death, %” value (IPF patients [12]; [26]) was 0%. For the same molecule, the “AE: Infections and infestations” value (IPF patients [12]; [27]) was 1 (4.3) n (%), the “Serious AEs: Results in Death, %” value (IPF patients [12]; [27]) was 4.3% and the “AE: Infections and infestations” value (IPF patients [12]; AF-group, 18 mg b.i.d.) was 7 (14.3) n (%). For the same molecule, the “Patients with AE resulting in death” value (IPF patients [12]; AF-group, 18 mg b.i.d.) was 1 (2.0) n (%), the “SAE: General disorders and administration side conditions, fatal events” value (IPF patients [12]; AF-group, 18 mg b.i.d., bracketed value marked * (fatal events)) was “[1 (2.1)]* n (%)” and the “SAE: Vasculitis” value (IPF patients [12]; AF-group, 18 mg b.i.d., fatal event) was 1 (2.0)* n (%). The “AE: Infections and infestations” value (IPF patients [12]; Non-AF-group, 18 mg b.i.d.) was 7 (14.6) n (%), the “Patients with AE resulting in death” value (IPF patients [12]; Non-AF-group, 18 mg b.i.d.) was 1 (2.1) n (%) and the “SAE: Infections and Infestations” value (IPF patients [12]; Non-AF-group, 18 mg b.i.d.) was 1 (2.1) n (%). The “SAE: Covid-19 pneumonia” value (IPF patients [12]; Non-AF-group, 18 mg b.i.d., fatal event) was 1 (2.1)* n (%), the “AE: Infections and infestations” value (IPF patients [12]; [28]) was 14 (14.4) n (%) and the “Patients with AE resulting in death” value (IPF patients [12]; [28]) was 2 (2.1) n (%). The “SAE: Covid-19 pneumonia” value (IPF patients [12]; [28]) was 1 (1.0) n (%), the “SAE: Infections and Infestations” value (IPF patients [12]; [28]) was 1 (1.0) n (%) and the “Patients who experienced an AE resulting in death” value (IPF patients [12]; active agent group, all, one Covid-19 pneumonitis, one unconfirmed vasculitis) was 2 patients.

For `CCOc1cc([C@@H](CS(C)(=O)=O)N2C(=O)c3cccc(NC(C)=O)c3C2=O)ccc1OC` [apremilast], the Skin fibrosis (skin fibrosis) is listed as “inhibited” and the “Fibrosis in colon, collagen deposition, fibrosis-related gene expression” value [13] is listed as “inhibited fibrosis in colon, collagen deposition, and the expression of genes related to fibrosis”.

For `Cc1ccc(=O)n(-c2ccccc2)c1` [pirfenidone], the “Effect on FVC decline” value (patients with IPF [1]) is listed as “can only reduce the decline in FVC” and the “Most prominent side effects” value (patients with IPF [2]) is listed as “gastrointestinal events, particularly diarrhea, nausea, vomiting, abdominal pain, decreased appetite and a decreased body weight”.

For `COc1ccc([C@]2(C#N)CC[C@@H](C(=O)O)CC2)cc1OC1CCCC1` [cilomilast], the “Late-stage lung fibrosis and collagen content” value (bleomycin mice [14]) is listed as “inhibit late-stage lung fibrosis and tended to reduce collagen content”, the “TGF-β1 and collagen type (Col) 1A1 expression” value (bleomycin mice [14]) is listed as “no effect” and the “FN-induced chemotaxis and contraction of collagen gels” value [8] is listed as “inhibited FN-induced chemotaxis and contraction of collagen gels”.

In the case of `O=C(Nc1c(Cl)cncc1Cl)c1ccc(OC(F)F)c(OCC2CC2)c1` [roflumilast], the “Right ventricular hypertrophy and vascular remodeling (pulmonary arteries)” value ([15]; in vivo) is given as “positively influenced”, the “Fibrosis, hydroxyproline content and mRNA expression in lung extracts” value ([15]; lung extracts) is given as “inhibited histologically assessed fibrosis, hydroxyproline content” and the “Activity in preventive and therapeutic protocols” value ([15]; oral) is given as “active both in preventive and in therapeutic protocols in a dose-dependent manner”. The “Levels of the amino acids glycine and proline” value (bleomycin mice [16]) was “lowered”, the “Lung glutathione and plasma tetrahydrobiopterin” value (bleomycin mice [16]) was “increased” and the “Lung hydroxyproline content and mRNA expression of TNF-α, FN, CTGF” value ([17]; mouse, in vivo) was “lowered lung hydroxyproline content and mRNA expression of TNF-α, fibronectin (FN), and CTGF”. For the same molecule, the “Potency relative to pirfenidone and nintedanib” value ([17]; therapeutic regimen) was “therapeutically equipotent to pirfenidone and nintedanib”, the “Fibrosis, collagen deposition, hydroxyproline, TGF-β1, cell infiltration, IL-6 and IL-1β mRNA” value ([18]; mouse, in vivo) was “inhibited fibrosis, collagen deposition, hydroxyproline and TGF-β1 content, cell infiltration, and expression of mRNA for IL-6 and IL-1β” and the Lung fibrosis ([18]; oral) was “attenuated”. For the same molecule, the “Liver fibrosis, hydroxyproline deposition, TGF-β1 expression” value [19] was “inhibited diethylnitrosamine-induced liver fibrosis, hydroxyproline deposition, and TGF-β1 expression”, the “TGF-β1-induced CTGF mRNA, α-SMA protein expression and FN” value [20] was “inhibition” and the “TGF-β-induced mRNA expression of collagen α1, CTGF, and FN” value [21] was “inhibited”.

In the case of `COc1ccc(C(=O)Nc2c(Cl)cncc2Cl)cc1OC1CCCC1` [piclamilast], the “TGF-β-induced fibroblast-to-myofibroblast conversion (α-SMA expression)” value [22] is given as “inhibited” and the “IL-1β plus bFGF-stimulated fibroblast proliferation” value [23] is given as “inhibition of IL-1β plus bFGF-stimulated fibroblast proliferation”.

For `CCOc1cc([C@@H](CS(C)(=O)=O)N2Cc3cccc(NC(=O)C4CC4)c3C2=O)ccc1OC` [CC-11050], the “Pulmonary damage and fibrosis” value (tuberculosis model) is given as “inhibited”.

In the case of `O=C(Nc1c(Cl)c[n+]([O-])cc1Cl)c1ccc(OC(F)F)c(OCC2CC2)c1` [roflumilast N-oxide], the “ICAM-1 and eotaxin release, proliferation, α-SMA, CTGF, FN mRNA” value [24] is listed as “inhibit intercellular adhesion molecule-1 and cotaxin release stimulated by TNF-α” and the “NHLF responses (collagen synthesis, proliferation, ROS and F2-isoprostane formation, NADPH oxidase 4 expression)” value [25] is listed as “inhibited”.
